Measured values reported in publication PMC7429481 (British Journal of Pharmacology, 2020).

Key:
[1] = biological target: T1, human SNAP‐GLP‐1 receptor (Homo sapiens, UniProt P43220); assay: GLP‐1 receptor recycling by TR‐FRET in CHO‐K1‐SNAP‐GLP‐1 receptor cells; type: cell-based; settings: H89 10 μM, exendin‐4 100 nM 30 min, n = 5
[2] = biological target: T1, human SNAP‐GLP‐1 receptor; assay: cAMP by HTRF in HEK293‐SNAP‐GLP‐1 receptor cells; type: cell-based; settings: 30 min incubation, n = 5
Procedure: Cells were stimulated with agonist for the indicated period in their respective growth mediums without FBS. […] At the end of the incubation period, cells were lysed and cAMP was determined by HTRF (cAMP Dynamic 2 kit, Cisbio) using a Spectramax i3x plate reader (Molecular Devices).

T1 sequence (P43220 24-463): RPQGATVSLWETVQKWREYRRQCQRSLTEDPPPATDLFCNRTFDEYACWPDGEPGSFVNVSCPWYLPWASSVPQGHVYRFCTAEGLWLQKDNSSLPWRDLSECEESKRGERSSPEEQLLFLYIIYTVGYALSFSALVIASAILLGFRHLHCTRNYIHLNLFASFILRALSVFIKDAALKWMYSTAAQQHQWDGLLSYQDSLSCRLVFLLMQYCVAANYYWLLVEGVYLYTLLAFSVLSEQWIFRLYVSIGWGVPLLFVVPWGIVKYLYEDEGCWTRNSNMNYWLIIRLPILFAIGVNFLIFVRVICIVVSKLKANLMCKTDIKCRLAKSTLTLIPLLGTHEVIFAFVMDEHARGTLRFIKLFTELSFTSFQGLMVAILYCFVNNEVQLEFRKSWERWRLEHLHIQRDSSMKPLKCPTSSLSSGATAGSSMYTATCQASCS

Compound | effect on GLP‐1 receptor recycling after exendin‐4 pretreatment [1] | cAMP signalling potency of FITC conjugate [2]
O=S(=O)(NCCNC/C=C/c1ccc(Br)cc1)c1cccc2cnccc12 [H89] | did not affect | 
lixisenatide‐FITC: FITC‐conjugate of lixisenatide |  | reduced cAMP signalling potency
